From US12186303B2, “Feed additive for cattle comprising n-acetyl-l-tryptophan as active ingredient” (CJ CHEILJEDANG CORPORATION, priority 2018, dated 2025) come the findings set out here.

The test concerns Korean native steers. Nature of the test: Feed intake and drinking water intake according to NALT feeding under heat stress conditions. In kind it is in vivo, Korean native cattle. The conditions noted are these: for Drinking water intake / Feed intake: 0.1% NALT. The text has this: After grouping the animals by statistical analysis of initial body weights, the animals were bred in 1.0×1.5 m^2 individual pens during the experiment period. The feed was offered based on an amount of dry matter of daily total mixed ration (TMR) per head. After 7 days of an adaptation period for N-acetyl-L-tryptophan (NALT), a mixture of 0.1% N-acetyl-L-tryptophan (NALT) and the total mixed ration was fed to individual animals every morning at 8 a.m. for 6 weeks, and water was available ad libitum. Total amounts of L-tryptophan ingested by the control and the experimental group (NALT-treated group) by feeding NALT were 6.0 g/day/head and 18.2 g/day/head, respectively. The experiment was performed such that the NALT-treated group ingested 12.2 g/day/head more L-tryptophan than the control.
Meanwhile, results of growth performance analysis (body weight and average feed intake) and genetic analysis of loin tissue were obtained by statistically comparing and analyzing significant differences between the control and the NALT-treated group, and results of hematological analysis were obtained via statistical comparison and analysis depending on NALT treatment, experiment period (days), and interaction (treatment×days). These numerical values were expressed as average values, and a significance test was performed at the 5% level using Student's t-test by using a JMP 5.0 software package (SAS Institute Inc., Cary, NC, USA).
Temperature (° C.) and relative humidity (%) were recorded every day during a one-week adaptation period and a 6-week experiment period using a portable temperature and humidity meter. Average temperature and average relative humidity of each week were calculated using the temperature and relative humidity recorded during the total experiment period. In addition, a temperature-humidity index (THI) was calculated using temperature and humidity as shown in the following equation, and heat stress state may be diagnosed using the THI as an index feature of a heat load. THI=(1.8×T+32)−[0.55−0.0055×RH)×(1.8×T−26.8)
Feed intake of each sentinel animal was calculated by measuring a total amount of feed offered and an amount left over every day, and drinking water intake thereof was calculated every day by measuring a total amount of drinking water offered and an amount left over. Also, since the amount of feed left over was measured in pen units, DMI/BW % was calculated using the equation DMI/BW %=1.2425+1.9218×NEm−0.7259×(NEm)^2 and corrected using actual data of the experiment to calculate data for each of the two heads included in each pen. Analysis results of changes in feed intake and drinking water intake of the control and the NALT-treated group are shown in Table 12. […] Based thereon, it may be interpreted that the feed intake of cattle fed with NALT increased compared with the control without having increased drinking water intake even under heat stress conditions.

For the setting “THIavg < 80”, `CC(=O)N[C@@H](Cc1c[nH]c2ccccc12)C(=O)O` [NALT, N-acetyl-L-tryptophan] registered a Drinking water intake of 35.3 kg and a Feed intake of 13.7 kg. Under “THIavg > 80”, this compound registered a Drinking water intake of 44.6 kg and a Feed intake of 13.5 kg. The “Feed intake compared to the control” value (THI of 80 or more) was “significantly increased”. In addition, under “entire experiment period”, the Average feed intake amounted to 13.62 kg/day and the “Average feed intake compared with the control” value is on record as “no statistically significant difference”. Also, under “regardless of THI conditions”, the “Drinking water intake compared with the control” value is listed as “statistically significant decrease”.
